Measured values reported in the supplement of paper PMC10307832.

Legend:
Experiment in all cases: relative viability (nuclei count vs DMSO), 5 days (fraction); higher = more cells survive
Venetoclax + Luminespib = compound: CC1(C)CCC(CN2CCN(c3ccc(C(=O)NS(=O)(=O)c4ccc(NCC5CCOCC5)c([N+](=O)[O-])c4)c(Oc4cnc5[nH]ccc5c4)c3)CC2)=C(c2ccc(Cl)cc2)C1 [Venetoclax] + CCNC(=O)c1noc(-c2cc(C(C)C)c(O)cc2O)c1-c1ccc(CN2CCOCC2)cc1 [Luminespib] (partner 0.01 µM)
Outline: (§1)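 Lung cancer cell lines, seeded in 1536-well plates, were treated the following day by pin tool with a single drug or with five library-drug doses (not always all listed) in √10 steps on top of a fixed anchor-drug dose. Cells were fixed and nuclei stained in one step after 5 days, and nuclei were counted. Relative viability is the nuclei count for treated wells divided by that for vehicle wells, reported as medians of duplicate plates.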

Selumetinib + AZD7762 = compound: Cn1cnc2c(F)c(Nc3ccc(Br)cc3Cl)c(C(=O)NOCCO)cc21 [Selumetinib] + NC(=O)Nc1cc(-c2cccc(F)c2)sc1C(=O)N[C@H]1CCCNC1 [AZD7762] (partner 0.2 µM)
Outline: as §1

Venetoclax + Olaparib = compound: CC1(C)CCC(CN2CCN(c3ccc(C(=O)NS(=O)(=O)c4ccc(NCC5CCOCC5)c([N+](=O)[O-])c4)c(Oc4cnc5[nH]ccc5c4)c3)CC2)=C(c2ccc(Cl)cc2)C1 [Venetoclax] + O=C(c1cc(Cc2n[nH]c(=O)c3ccccc23)ccc1F)N1CCN(C(=O)C2CC2)CC1 [Olaparib] (partner 8 µM)
Outline: as §1

Selumetinib + Pictilisib = compound: Cn1cnc2c(F)c(Nc3ccc(Br)cc3Cl)c(C(=O)NOCCO)cc21 [Selumetinib] + CS(=O)(=O)N1CCN(Cc2cc3nc(-c4cccc5[nH]ncc45)nc(N4CCOCC4)c3s2)CC1 [Pictilisib] (partner 1 µM)
Outline: as §1

Row | Cell Line | relative viability (Venetoclax + Luminespib; first compound 0.01 µM) | relative viability (Venetoclax + Luminespib; first compound 0.03162 µM) | relative viability (Venetoclax + Luminespib; first compound 0.1 µM) | relative viability (Venetoclax + Luminespib; first compound 0.3162 µM) | relative viability (Venetoclax + Luminespib; first compound 1 µM) | relative viability (Selumetinib + AZD7762; first compound 0.02 µM) | relative viability (Selumetinib + AZD7762; first compound 0.06325 µM) | relative viability (Selumetinib + AZD7762; first compound 0.2 µM) | relative viability (Selumetinib + AZD7762; first compound 0.6325 µM) | relative viability (Venetoclax + Olaparib; first compound 0.01 µM) | relative viability (Venetoclax + Olaparib; first compound 0.03162 µM) | relative viability (Venetoclax + Olaparib; first compound 0.1 µM) | relative viability (Venetoclax + Olaparib; first compound 0.3162 µM) | relative viability (Venetoclax + Olaparib; first compound 1 µM) | relative viability (Selumetinib + Pictilisib; first compound 0.02 µM) | relative viability (Selumetinib + Pictilisib; first compound 0.06325 µM) | relative viability (Selumetinib + Pictilisib; first compound 0.2 µM) | relative viability (Selumetinib + Pictilisib; first compound 0.6325 µM)
1 | 201T | 1.01 | 1.08 | 1.04 | 0.996 | 1.05 | 0.602 | 0.615 | 0.554 | 0.6 | 0.822 | 0.868 | 0.811 | 0.846 | 0.829 | 0.641 | 0.693 | 0.625 | 0.677
2 | NCI-H2170 | 0.589 | 0.427 | 0.766 | 0.737 | 0.689 | 0.874 | 0.88 | 0.711 | 0.838 | 0.57 | 0.639 | 0.573 | 0.615 | 0.591 | 0.27 | 0.306 | 0.276 | 0.249
3 | NCI-H596 | 1.03 | 0.947 | 1.03 | 0.994 | 1.06 | 1.06 | 1.14 | 1.02 | 0.768 | 0.764 | 0.709 | 0.711 | 0.696 | 0.759 | 0.372 | 0.333 | 0.31 | 0.296
4 | NCI-H838 | 0.408 | 0.255 | 0.24 | 0.378 | 0.275 | 0.87 | 0.844 | 0.878 | 0.824 | 0.784 | 0.758 | 0.824 | 0.776 | 0.764 | 0.458 | 0.314 | 0.321 | 0.339
5 | NCI-H1651 | 0.872 | 0.882 | 0.817 | 0.8 | 0.79 | 0.44 | 0.42 | 0.445 | 0.495 | 0.157 | 0.204 | 0.171 | 0.171 | 0.188 | 0.536 | 0.51 | 0.511 | 0.522
6 | ABC-1 | 0.553 | 0.53 | 0.689 | 0.431 | 0.912 | 0.871 | 0.591 | 0.66 | 0.578 | 0.711 | 0.721 | 0.87 | 0.641 | 0.686 | 0.64 | 0.605 | 0.393 | 0.607
7 | LOU-NH91 | 0.271 | 0.374 | 0.345 | 0.336 | 0.326 | 0.754 | 0.758 | 0.696 | 0.733 | 0.821 | 0.88 | 0.965 | 0.919 | 0.856 | 0.503 | 0.496 | 0.523 | 0.539
8 | H3255 | 0.915 | 0.993 | 0.846 | 0.947 | 0.822 | 0.827 | 0.945 | 0.821 | 0.935 | 0.626 | 0.576 | 0.545 | 0.597 | 0.566 | 0.434 | 0.462 | 0.38 | 0.36
